Measured values: patent US6989399B2, “Antiamyloid phenylsulfonamides: N-alkanol derivatives” (Bristol-Myers Squibb Company, priority 2002, dated 2006)

Biological target: T1, γ-secretase (Homo sapiens, UniProt P49768)
T1 construct: The endogenous γ-secretase present in the isolated membranes; endogenous in cells; host or cells: isolated membrane fraction of human-derived cell lines such as HeLa and H4, stably transfected with β-APP substrate
Test: Isolated membrane γ-secretase assay, time-resolved fluorescence detection of Aβ
Assay type: biochemical
Conditions: isolated membranes, about 90 minutes at 37 degrees C; read-out: Activity (IC50), Inhibition of β-Amyloid Peptide
Excerpt: The detection of γ-secretase activity requires assays capable of reliable, accurate and expedient detection of γ-secretase cleavage products, particularly Aβ. An isolated membrane fraction that contains functionally active γ-secretase and β-APP substrates can generate γ-secretase cleavage products including Aβ (Roberts et al., WO 01/75435; Fechteler et al., Patent Application No. DE 99-19941039 19990828; Shearman et al., Biochemistry, 39, p. 8698–8704 (2000); Zhang et al., Biochemistry, 40, p. 5049-5055 (2001)). An isolated membrane fraction can be prepared from human derived cell lines such as HeLa and H4 which have been transfected with wild type or mutant forms of β-APP or a human alkaline phosphatase β-APP fusion construct, and stably express high levels of γ-secretase substrates. The endogenous γ-secretase present in the isolated membranes prepared at 0–4 degrees C. cleaves the β-APP substrates when the membranes are shifted from 0–4 to 37 degrees C. […] 325–327 (1992), or by a preferred method using time-resolved fluorescence of the homogeneous sample containing membranes and Aβ (Roberts et al., WO 01/75435; Shearman et al., Biochemistry, 39, p. 8698–8704 (2000)). The Aβ present in a homogeneous sample containing membranes can be detected by time-resolved fluorescence with two antibodies that recognize different epitopes of Aβ. One of the antibodies recognizes an epitope that is present in Aβ but not present in the precursor fragments; preferably the antibody binds the carboxyl terminus of Aβ generated by the γ-secretase cleavage. The second antibody binds to any other epitope present on Aβ. For example, antibodies that bind the N-terminal region (e.g., 26D6-B2-B3® SIBIA Neurosciences, La Jolla, Calif.) or bind the C-terminal end (e.g., 9S3.2® antibody, Biosolutions, Newark, Del.) of the Aβ peptide are known. The antibodies are labeled with a pair of fluorescent adducts that transfer fluorescent energy when the adducts are brought in close proximity as a result of binding to the N- and C-terminal ends or regions of Aβ. A lack of fluorescence is indicative of the absence of cleavage products, resulting from inhibition of γ-secretase. The isolated membrane assay can be used to identify candidate agents that inhibit the activity of γ-secretase cleavage and Aβ production.
A typical membrane-based assay requires 45 μg membrane protein per well in a 96- or 384-well format. Membranes in a neutral buffer are combined with the test compound and shifted from 0–4 to 37 degrees C. Test agents may typically consist of synthetic compounds, secondary metabolites from bacterial or fungal fermentation extracts, or extracts from plant or marine samples. All synthetic agents are initially screened at doses ranging from 10–100 μM or in the case of extracts at sufficient dilution to minimize cytotoxicity. Incubation of the membranes with the test agent will continue for approximately 90 minutes at which time fluorescence labeled antibodies are added to each well for Aβ quantitation. The time-resolved fluorescence detection and quantitation of Aβ is described elsewhere (Roberts et al., WO 01/75435; Shearman et al., Biochemistry, 39, p. 8698–8704 (2000)). Results are obtained by analysis of the plate in a fluorescence plate reader and comparison to the mock treated membranes and samples in which known amounts of Aβ were added to construct a standard concentration curve. A positive acting compound is one that inhibits the Aβ relative to the control sample by at least 50% at the initial tested concentration. If a compound is found to be active then a dose response experiment is performed to determine the lowest dose of compound necessary to elicit the inhibition of the production of Aβ.
The Formula I compounds were tested in the assay described above and found to be active as inhibitors of γ-secretase. […]

| Structure (SMILES) | IC50 [µM] |
| --- | --- |
| C=CCCC(O)C[C@@H](C)N(c1cc(Cl)ccc1Cl)S(=O)(=O)c1ccc(Cl)cc1 (mixture of isomers) [Example 29] | 0.05 to 0.2 |
| C[C@H](CC(O)c1ccccc1)N(c1cc(Cl)ccc1Cl)S(=O)(=O)c1ccc(Cl)cc1 (mixture of isomers) [Example 30] | 0.05 to 0.2 |
| C[C@H](C(O)C1CCCCC1)N(c1cc(Cl)ccc1Cl)S(=O)(=O)c1ccc(Cl)cc1 (mixture of isomers) [Example 13] | 0.2 to 5 |
| CC(C)CC(O)[C@@H](C)N(c1cc(Cl)ccc1Cl)S(=O)(=O)c1ccc(Cl)cc1 (mixture of isomers) [Example 11] | 0.2 to 5 |
| CC(C)C(O)[C@@H](C)N(c1cc(Cl)ccc1Cl)S(=O)(=O)c1ccc(Cl)cc1 (mixture of isomers) [Example 10] | 0.2 to 5 |
| C=CCC(O)[C@@H](C)N(c1cc(Cl)ccc1Cl)S(=O)(=O)c1ccc(Cl)cc1 (single isomer, unassigned) [Example 5B] | 0.2 to 5 |
| CCCC(O)[C@@H](C)N(c1cc(Cl)ccc1Cl)S(=O)(=O)c1ccc(Cl)cc1 (single isomer, unassigned) [Example 6B] | 0.2 to 5 |
| C[C@H](C(O)C1CCCC1)N(c1cc(Cl)ccc1Cl)S(=O)(=O)c1ccc(Cl)cc1 (mixture of isomers) [Example 12] | 0.2 to 5 |
| CC(O)C(C)N(c1cc(Cl)ccc1Cl)S(=O)(=O)c1ccc(Cl)cc1 (single isomer, unassigned) [Example 9A] | 0.05 to 0.2 |
| C[C@H](C(O)CC(=O)O)N(c1cc(Cl)ccc1F)S(=O)(=O)c1ccc(Cl)cc1 (mixture of isomers) [Example 24] | 0.05 to 0.2 |
| C[C@H](C(O)c1ccccc1)N(c1cc(Cl)ccc1Cl)S(=O)(=O)c1ccc(Cl)cc1 (mixture of isomers) [Example 14] | 0.2 to 5 |
| COc1ccc(C(O)[C@@H](C)N(c2cc(Cl)ccc2F)S(=O)(=O)c2ccc(Cl)cc2)cc1 (mixture of isomers) [Example 22] | 0.2 to 5 |
| Cc1cc(C)c(C(O)[C@@H](C)N(c2cc(Cl)ccc2Cl)S(=O)(=O)c2ccc(Cl)cc2)c(C)c1 (single isomer, unassigned) [Example 16A] | 0.2 to 5 |
| CC(O)C[C@@H](C)N(c1cc(Cl)ccc1Cl)S(=O)(=O)c1ccc(Cl)cc1 (mixture of isomers) [Example 7] | 0.05 to 0.2 |
| CC(C(O)CCc1ccccc1)N(c1cc(Cl)ccc1Cl)S(=O)(=O)c1ccc(Cl)cc1 (single isomer, unassigned) [Example 17B] | 0.2 to 5 |
| C=CCC(O)[C@@H](C)N(c1cc(Cl)ccc1Cl)S(=O)(=O)c1ccc(Cl)cc1 (single isomer, unassigned) [Example 5A] | 0.05 to 0.2 |
| CCCC(O)[C@@H](C)N(c1cc(Cl)ccc1Cl)S(=O)(=O)c1ccc(Cl)cc1 (single isomer, unassigned) [Example 6A] | 0.05 to 0.2 |
| CC(C(O)CCc1ccccc1)N(c1cc(Cl)ccc1Cl)S(=O)(=O)c1ccc(Cl)cc1 (single isomer, unassigned) [Example 17A] | 0.2 to 5 |
| CC(C)CC(O)C[C@@H](C)N(c1cc(Cl)ccc1Cl)S(=O)(=O)c1ccc(Cl)cc1 (mixture of isomers) [Example 28] | 0.05 to 0.2 |
| CCCC(=O)OC(CCC)[C@@H](C)N(c1cc(Cl)ccc1F)S(=O)(=O)c1ccc(Cl)cc1 (single isomer, unassigned) [Example 8] | 0.05 to 0.2 |

Further lines, results first:

| IC50 [µM] | Structure (SMILES) |
| --- | --- |
| 0.2 to 5 | C=CCCC(O)C(C)N(c1cc(Cl)ccc1Cl)S(=O)(=O)c1ccc(Cl)cc1 (single isomer, unassigned) [Example 18B] |
| < 0.05 | C#CCC(O)[C@@H](C)N(c1cc(Cl)ccc1F)S(=O)(=O)c1ccc(Cl)cc1 (single isomer, unassigned) [Example 21B] |
| < 0.05 | C#CCC(O)[C@@H](C)N(c1cc(Cl)ccc1F)S(=O)(=O)c1ccc(Cl)cc1 (single isomer, unassigned) [Example 21A] |
| 0.05 to 0.2 | CC(O)C(C)N(c1cc(Cl)ccc1F)S(=O)(=O)c1ccc(Cl)cc1 (single isomer, unassigned) [Example 19A] |
| < 0.05 | C=CCC(O)[C@@H](C)N(c1cc(Cl)ccc1F)S(=O)(=O)c1ccc(Cl)cc1 (single isomer, unassigned) [Example 23A] |
| 0.05 to 0.2 | C=CCCC(O)C(C)N(c1cc(Cl)ccc1F)S(=O)(=O)c1ccc(Cl)cc1 (single isomer, unassigned) [Example 20A] |
| 0.2 to 5 | C=CCCC(O)C(C)N(c1cc(Cl)ccc1F)S(=O)(=O)c1ccc(Cl)cc1 (single isomer, unassigned) [Example 20B] |
| < 0.05 | CCCC(O)[C@@H](C)N(c1cc(Cl)ccc1F)S(=O)(=O)c1ccc(Cl)cc1 (single isomer, unassigned) [Example 27A] |
| 0.05 to 0.2 | C=CCCC(O)C(C)N(c1cc(Cl)ccc1Cl)S(=O)(=O)c1ccc(Cl)cc1 (single isomer, unassigned) [Example 18A] |
